The results in this text go back to article PMC8605023 (Nature Communications, 2021).

Peptide text beside a SMILES is read from it.

Common to all, as to assay: biochemical
Common to all, as to format: binding

One experiment has as its target T1, AP2M1 (Homo sapiens, UniProt Q96CW1).
T1 construct: His-GST (cleaved yes); made in house; host or cells: E. coli BL21-Gold(DE3)
T1 sequence (Q96CW1 160-435 limits assumed): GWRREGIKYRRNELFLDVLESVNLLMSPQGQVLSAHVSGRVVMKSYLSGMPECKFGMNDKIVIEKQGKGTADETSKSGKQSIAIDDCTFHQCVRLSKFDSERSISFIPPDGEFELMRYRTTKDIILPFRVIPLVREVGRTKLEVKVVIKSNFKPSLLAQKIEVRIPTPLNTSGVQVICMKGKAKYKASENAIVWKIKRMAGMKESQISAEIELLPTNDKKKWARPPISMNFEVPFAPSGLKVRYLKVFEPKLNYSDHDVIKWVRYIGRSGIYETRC

The next experiment addresses T2, NTF2 domain of G3BP1 (Homo sapiens, UniProt Q13283).
T2 construct: made in house; host or cells: E. coli BL21-Gold(DE3)

For a further experiment, the target named is T3, NTF2 domain of G3BP2 (Homo sapiens, UniProt Q9UN86).
T3 construct: made in house; host or cells: E. coli BL21-Gold(DE3)
T3 sequence (Q9UN86 11-133 limits assumed): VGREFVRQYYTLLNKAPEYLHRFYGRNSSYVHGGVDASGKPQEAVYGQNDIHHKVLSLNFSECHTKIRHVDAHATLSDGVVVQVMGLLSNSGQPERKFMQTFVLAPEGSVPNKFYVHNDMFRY

The next experiment concerns the target T4, MAP1LC3C (Homo sapiens, UniProt Q9BXW4).
T4 construct: His-GST (cleaved yes); made in house; host or cells: E. coli BL21-Gold(DE3)

Another experiment deals with T5, USP7 (Homo sapiens, UniProt Q93009).
T5 construct: His-GST (cleaved yes); made in house; host or cells: E. coli BL21-Gold(DE3)
T5 sequence (Q93009 63-205 limits assumed): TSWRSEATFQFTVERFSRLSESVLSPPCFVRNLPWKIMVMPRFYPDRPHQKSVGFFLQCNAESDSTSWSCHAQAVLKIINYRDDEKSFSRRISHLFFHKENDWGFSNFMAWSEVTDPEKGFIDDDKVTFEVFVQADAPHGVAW

T2 sequence (Q13283 11-133 limits assumed): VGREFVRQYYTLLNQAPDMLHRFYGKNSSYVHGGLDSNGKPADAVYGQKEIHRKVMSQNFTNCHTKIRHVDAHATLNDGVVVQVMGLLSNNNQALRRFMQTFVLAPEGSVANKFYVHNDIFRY
T4 sequence (Q9BXW4 1-126 limits assumed): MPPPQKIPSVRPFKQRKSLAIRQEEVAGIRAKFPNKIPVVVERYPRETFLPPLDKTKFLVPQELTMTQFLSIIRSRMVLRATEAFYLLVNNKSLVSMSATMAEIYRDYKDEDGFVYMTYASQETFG

A word on the Kd: it is the equilibrium constant for the complex coming apart. The low end stands for higher affinity, the high end for lower affinity. On to `CC[C@H](C)[C@H](NC(=O)[C@H](CC(=O)O)NC(=O)[C@H](CO)NC(=O)[C@@H](NC(=O)[C@@H](NC(=O)CNC(C)=O)C(C)C)C(C)C)C(=O)N[C@@H](CC(=O)O)C(=O)N[C@@H](Cc1ccc(O)cc1)C(=O)N[C@H](C(=O)N1CCC[C@H]1C(=O)N[C@@H](CC(C)C)C(=O)N[C@@H](CCCCN)C(=O)N[C@@H](CO)C(=O)N[C@@H](C)C(=O)N[C@H](C(N)=O)[C@@H](C)O)C(C)C`, for which the Kd at AP2M1 worked out at 1.6 ± 0.2 µM.

Broadly, the IC50 is the concentration that gives 50% inhibition. For orientation: Ki means the equilibrium dissociation constant of an inhibitor or competing ligand from its target. Read a low Ki as higher affinity. As to `CC[C@H](C)[C@H](NC(=O)[C@H](CCCNC(=N)N)NC(=O)[C@@H]1CCCN1C(=O)[C@H](C)NC(C)=O)C(=O)N[C@H](C(=O)N[C@@H](Cc1ccccc1)C(=O)NCC(=O)NCC(=O)N1CCC[C@H]1C(=O)N[C@@H](CO)C(=O)N[C@@H](CC(=O)O)C(=O)N[C@@H](CO)C(=O)N[C@H](C(=O)NCC(=O)N[C@@H](CO)C(=O)N[C@@H](Cc1ccc(O)cc1)C(N)=O)[C@@H](C)O)[C@@H](C)O` [N 12-26 Sars-CoV2] (Ac-APRITFGGPSDSTGSY-NH2), at NTF2 domain of G3BP1, the IC50 came out at 17 µM, the Kd came to 4 µM and the Ki is 4 µM. At NTF2 domain of G3BP2, the IC50 was determined as 10 µM.

With `CC[C@H](C)[C@H](NC(=O)[C@H](Cc1c[nH]cn1)NC(=O)[C@H](CCCCN)NC(=O)[C@H](CC(N)=O)NC(=O)[C@H](CC(C)C)NC(C)=O)C(=O)N[C@@H](CC(=O)O)C(=O)N[C@@H](C)C(=O)N[C@@H](Cc1ccc(O)cc1)C(=O)N[C@@H](CCCCN)C(=O)N[C@H](C(=O)N[C@@H](Cc1ccccc1)C(=O)N1CCC[C@H]1C(=O)N1CCC[C@H]1C(=O)N[C@H](C(=O)N[C@@H](CCC(=O)O)C(N)=O)[C@@H](C)O)[C@@H](C)O` [N 353-367 Sars-CoV2/Sars-CoV], on AP2M1, the IC50 was determined as 1530 µM and the Ki came to 530 µM.

Regarding `CC(=O)N[C@@H](CCC(N)=O)C(=O)NCC(=O)N[C@@H](CC(C)C)C(=O)N1CCC[C@H]1C(=O)N[C@@H](CC(C)C)C(=O)N[C@@H](CCC(=O)O)C(=O)N[C@@H](Cc1ccccc1)C(=O)NCC(=O)N[C@@H](C)C(=O)N[C@@H](CO)C(=O)N[C@@H](C)C(=O)N[C@@H](CCC(=O)O)C(=O)N[C@H](C(=O)N[C@H](C(=O)N[C@@H](CCCNC(=N)N)C(=O)N[C@@H](Cc1ccc(O)cc1)C(N)=O)C(C)C)[C@@H](C)O` [NSP3 958-972 Sars-CoV], at NTF2 domain of G3BP1, the Kd was 119 ± 5 µM and affinity was put at a Ki of 119 µM. At NTF2 domain of G3BP2, this compound returned a Kd of 47 ± 2 µM and an inhibition constant (Ki) of 47 µM.

As for `CC(=O)N[C@@H](CC(C)C)C(=O)N[C@H](C(=O)N[C@@H](Cc1ccccc1)C(=O)NCC(=O)N[C@@H](CC(=O)O)C(=O)N[C@@H](Cc1ccccc1)C(=O)N[C@@H](CC(=O)O)C(=O)N[C@@H](CCC(=O)O)C(=O)N[C@@H](Cc1c[nH]cn1)C(=O)N[C@@H](CCC(=O)O)C(=O)N[C@H](C(=O)N[C@@H](CC(=O)O)C(=O)N[C@@H](Cc1ccc(O)cc1)C(N)=O)C(C)C)[C@@H](C)O` [NSP3 1785-1796 SFV], the figures for the IC50 on NTF2 domain of G3BP1 and at NTF2 domain of G3BP2 were 23 µM and 13 µM, respectively.

For `CC[C@H](C)[C@H](NC(=O)CNC(=O)[C@H](CO)NC(=O)[C@H](C)NC(=O)[C@H](CC(C)C)NC(=O)[C@H](C)NC(=O)[C@H](CC(=O)O)NC(=O)[C@@H](NC(=O)[C@H](CCC(=O)O)NC(=O)[C@H](Cc1c[nH]cn1)NC(=O)[C@H](CCC(=O)O)NC(=O)[C@H](CC(=O)O)NC(=O)[C@H](Cc1ccccc1)NC(=O)[C@H](CC(=O)O)NC(=O)CNC(=O)[C@H](Cc1ccccc1)NC(=O)[C@@H](NC(=O)[C@H](CC(C)C)NC(C)=O)[C@@H](C)O)C(C)C)C(=O)N[C@H](C(=O)N[C@@H](Cc1ccccc1)C(=O)NCC(=O)N[C@@H](CC(=O)O)C(=O)N[C@@H](Cc1ccccc1)C(=O)N[C@@H](CC(=O)O)C(=O)N[C@@H](CC(=O)O)C(=O)N[C@@H](Cc1ccc(O)cc1)C(N)=O)[C@@H](C)O` [NSP3 1785-1809 SFV], at NTF2 domain of G3BP1, the Kd was 0.3 µM; the affinity, expressed as Ki, was 0.3 µM; the “binds stronger than the SARS-CoV-2 N peptide to both G3BP1 and G3BP2 (fold)” value is listed as “approximately 10 fold”. Also, the affinity on NTF2 domain of G3BP2, expressed as Ki, was 0.15 µM.

At MAP1LC3C, `CC(C)C[C@H](NC(=O)[C@@H](NC(=O)[C@H](CCC(=O)O)NC(=O)[C@H](Cc1ccccc1)NC(=O)[C@H](CO)NC(=O)[C@H](CC(N)=O)NC(=O)[C@H](CO)NC(=O)[C@@H](NC(=O)[C@H](CC(=O)O)NC(=O)[C@@H](N)C(C)C)[C@@H](C)O)C(C)C)C(=O)N[C@@H](C)C(=O)N[C@H](C(=O)N[C@@H](CCC(=O)O)C(=O)N[C@@H](CC(=O)O)C(=O)N[C@H](C(=O)N[C@@H](CCC(N)=O)C(=O)N[C@@H](Cc1ccc(O)cc1)C(=O)O)[C@@H](C)O)C(C)C` [NSP3 1996-2011 Sars-CoV] came in with an IC50 of 200 µM, a Kd of 28 ± 1 µM and a Ki of 28 µM. At USP7, this compound returned an IC50 of 210 µM, a Kd of 29 ± 2 µM and a Ki of 29 µM.

For the compound `CC[C@H](C)[C@H](NC(=O)[C@H](CCSC)NC(=O)[C@H](CO)NC(C)=O)C(=O)N[C@@H](CCC(=O)O)C(=O)N[C@@H](CC(=O)O)C(=O)N[C@H](C(=O)N[C@@H](CC(=O)O)C(=O)N[C@@H](Cc1ccc(O)cc1)C(=O)N[C@H](C(=O)N1CCC[C@H]1C(=O)N[C@@H](CC(C)C)C(=O)N[C@@H](CCCCN)C(=O)N[C@@H](CO)C(=O)N[C@@H](C)C(=O)N[C@H](C(N)=O)C(C)C)C(C)C)[C@@H](C)CC` [NSP14 6498-6512 Mers], on AP2M1, binding was put at a Kd of 3 ± 0.1 µM and the Ki is 3 µM.

At NTF2 domain of G3BP1, `CC[C@H](C)[C@H](NC(=O)[C@@H]1CCCN1C(=O)[C@@H]1CCCN1C(=O)[C@@H](NC(=O)[C@@H]1CCCN1C(C)=O)C(C)C)C(=O)N[C@@H](CCC(=O)O)C(=O)N[C@@H](Cc1ccccc1)C(=O)NCC(=O)N[C@H](C(=O)N[C@@H](CO)C(=O)N1CCC[C@H]1C(=O)N[C@@H](CCCCN)C(=O)N[C@@H](CC(=O)O)C(=O)N[C@@H](CO)C(=O)N[C@@H](CC(=O)O)C(=O)N[C@@H](Cc1ccc(O)cc1)C(N)=O)C(C)C` [PRRC2B 1780-1794 Human] (Ac-PVPPIEFGVSPKDSDY-NH2) gave an IC50 of 33 µM and a Ki of 10 µM. Further, at NTF2 domain of G3BP2, the half-maximal inhibitory concentration (IC50) amounted to 53 µM and the Kd amounted to 10 µM.

`CC(=O)N1CCC[C@H]1C(=O)N[C@@H](CO)C(=O)N[C@@H](CCCCN)C(=O)N[C@@H](CC(C)C)C(=O)N1CCC[C@H]1C(=O)N[C@H](C(=O)N[C@@H](Cc1ccccc1)C(=O)NCC(=O)N[C@@H](C)C(=O)N1CCC[C@H]1C(=O)N[C@@H](CCC(=O)O)C(=O)N[C@@H](CCC(N)=O)C(=O)N[C@@H](CC(C)C)C(=O)N[C@H](C(=O)N[C@@H](CC(=O)O)C(=O)N[C@@H](Cc1ccc(O)cc1)C(N)=O)C(C)C)[C@@H](C)O` [TRIM25 400-414 Human] (Ac-PSKLPTFGAPEQLVDY-NH2) registered a Ki on NTF2 domain of G3BP1 of 46 µM. On NTF2 domain of G3BP2, the IC50 was found to be 53 µM and the Kd turned out to be 46 µM.

As for `CC(=O)N[C@@H](CC(N)=O)C(=O)N[C@@H](CC(C)C)C(=O)N[C@@H](CCC(N)=O)C(=O)N[C@@H](Cc1ccccc1)C(=O)NCC(=O)N[C@@H](C)C(=O)N[C@@H](CC(C)C)C(=O)N[C@@H](CCC(N)=O)C(=O)N[C@@H](Cc1ccccc1)C(=O)NCC(=O)N[C@@H](CO)C(=O)N[C@@H](CCC(=O)O)C(=O)N1CCC[C@H]1C(=O)N[C@H](C(=O)N[C@@H](Cc1ccc(O)cc1)C(=O)O)C(C)C` [UBAP2L 515-528 Human] (Ac-NLQFGALQFGSEPVY-OH), the affinity on NTF2 domain of G3BP1, expressed as Ki, was 34 µM. Further, the affinity on NTF2 domain of G3BP2, expressed as Kd, was 34 µM.
